SMILES strings stand for the structures.

Test [1] has as its target T1, GzmB (Homo sapiens, UniProt P10144). Briefly: Inhibition of fibronectin cleavage by GzmB. It is filed as biochemical. To be noted: 20 nM granzyme B; for inhibition at 0.62 µM: 0.62 uM inhibitor, read-out: Percent Inhibition at Inhibitor Concentration 0.62 uM; for inhibition at 5.56 µM: 5.56 uM inhibitor, read-out: Percent Inhibition at Inhibitor Concentration 5.56 uM; for inhibition at 50 µM: 50 uM inhibitor, read-out: Percent Inhibition at Inhibitor Concentration 50 uM. The protocol: Black, 96 well high-binding assay plates (Griener Bio-one) were treated overnight at 4° C. with 40 uL of 8 ug/mL Hilyte Fluor 488 labeled Fibronectin (Cytoskeleton, Inc). After fibronectin coating, plates were washed 3 times in buffer (20 mM Tris-HCl, pH 7.4, 20 mM NaCl) then once with granzyme B assay buffer (50 mM HEPES, pH 7.5, 0.1% CHAPS). After washing, 50 μL of granzyme B assay buffer was added to each fibronectin-coated well. In a separate non-binding 96 well assay plate 5 μL of 20× inhibitor serial dilution stocks were added to 45 μL of 2.22× GzmB mix to establish inhibition (enzyme/inhibitor mixes were all prepared in granzyme B assay buffer and were incubated first at room temperature for 20 minutes, then at 30° C. for another 10 minutes). After incubation, 50 μL of this 2× enzyme/inhibitor mix was added to the corresponding coated well to initiate fibronectin cleavage (20 nM final granzyme B concentration, 8-point inhibitor dilution series starting at 50 uM). The assay was conducted at 30° C. in the TECAN plate reader (TECAN INFINITE® M1000 Pro), which was programmed to monitor the kinetic fluorescence polarization signal (filter set Ex/Em 470 nm/527 nm) with readings taken every minute, for 1 hour. Proteolytic activity was evaluated as the rate of fluorescence enhancement in the parallel emission over the linear range of the reaction. % Inhibition values were calculated from assay controls and the resulting date is shown in Table 7.

Test [2] deals with T1, GzmB. Briefly: Inhibition of cell detachment by GzmB assay (HDFa fibroblasts, MTS). It is filed as cell-based. The following applies: 50 uM inhibitor, 100 nM GzmB, HDFa primary human fibroblasts, 7 hours; read-out: Percent Inhibition of cell detachment at 50uM. The protocol: HDFa primary human fibroblasts were plated at 10 k/well in 200 ul, approximately 20 hrs before treatment. The next day, controls and 100 nM GzmB (recombinant, human) plus or minus inhibitor treatments were prepared in serum-free media. GzmB and inhibitor were incubated for 20 minutes at RT before adding to cells. Before addition, media and serum was removed from the cells and the cells were washed with PBS (1×), using pipettes to prevent disturbing the cells. Treatment preparations (100 ul) were added to the wells and incubated for 7 hours in a tissue culture incubator. After 7 hours, media and treatments were removed and the cells were washed with PBS (1×) to removed detached cells, using pipettes only. Phase pictures were taken then the PBS was removed and replaced with 100 uL of serum-free media and 20 uL of MTS and the cells were allowed to incubate for 3 hours in a cell culture incubator. After 3 hours the absorbance was read at 490 nm and a percent inhibition value for the treatments with inhibitors was determined from the control wells.

T1 sequence (P10144 21-247): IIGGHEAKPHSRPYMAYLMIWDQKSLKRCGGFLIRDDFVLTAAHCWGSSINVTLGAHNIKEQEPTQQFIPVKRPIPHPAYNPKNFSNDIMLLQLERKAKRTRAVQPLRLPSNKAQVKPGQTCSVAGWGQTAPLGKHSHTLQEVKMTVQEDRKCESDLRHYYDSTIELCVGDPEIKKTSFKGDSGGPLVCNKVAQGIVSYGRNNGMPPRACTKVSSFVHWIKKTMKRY

As to `CC[C@H](C)[C@H](NC(=O)Cc1nn[nH]n1)C(=O)NCC(=O)N1c2ncccc2C[C@H]1C(=O)NCc1nn[nH]n1` [Example A1, (S)-1-(2-((2S,3S)-2-(2-(2H-tetrazol-5-yl)acetamido)-3-methylpentanamido)acetyl)-N-((2H-tetrazol-5-yl)methyl)-2,3-dihydro-1H-pyrrolo[2,3-B]pyridine-2-carboxamide], in test [1], the inhibition at 0.62 µM amounted to 66%, the inhibition at 5.56 µM was 82% and the inhibition at 50 µM turned out to be 88%.
`CC[C@H](C)[C@H](NC(=O)CCC(=O)O)C(=O)N[C@@H](CCC(=O)O)C(=O)N1c2ncccc2C[C@H]1C(=O)NCc1nn[nH]n1` [Example C4, (S)-5-((S)-2(((2H-tetrazol-5-yl)methyl)carbamoyl)-2,3-dihydro-1H-pyrrolo[2,3-B]pyridin-1-yl)-4-((2S,3S)-2-(3-carboxypropanamido)-3-methylpentanamido)-5-oxopentanoic acid]: in test [2], the inhibition at 50 µM was 100%. Besides, in test [1], the inhibition at 0.62 µM worked out at 45%, the inhibition at 5.56 µM was 79% and the inhibition at 50 µM worked out at 98%.
On to `CC[C@H](C)[C@H](NC(=O)Cc1ccccc1)C(=O)N[C@@H](CCC(=O)O)C(=O)N1c2ncccc2C[C@H]1C(=O)NCc1nn[nH]n1` [Example C9, (S)-5-((S)-2-(((2H-tetrazol-5-yl)methyl)carbamoyl)-2,3-dihydro-1H-pyrrolo[2,3-B]pyridin-1-yl)-4-((2S,3S)-3-methyl-2-(2-phenylacetamido)pentanamido)-5-oxopentanoic acid], for which, in test [1], the inhibition at 0.62 µM stood at 58%, the inhibition at 5.56 µM worked out at 81% and the inhibition at 50 µM stood at 91%.
On the same counts, the results for `CC(C)[C@H](NC(=O)CCC(=O)O)C(=O)N[C@@H](CCC(=O)O)C(=O)N1c2ncccc2C[C@H]1C(=O)NCc1nn[nH]n1` [Example C17, (S)-5-((S)-2-(((2H-tetrazol-5-yl)methyl)carbamoyl)-2,3-dihydro-1H-pyrrolo[2,3-B]pyridin-1-yl)-4-((S)-2-(3-carboxypropanamido)-3-methylbutanamido)-5-oxopentanoic acid] are 56%, 77% and 94%.

(Values after patent publication US10246487B2, “Azaindoline compounds as granzyme B inhibitors” (viDA Therapeutics Inc., priority 2014, dated 2019).)
